Assay results: patent US9517279B2, “2-alkoxy-11-hydroxyaporphine derivatives and uses thereof” (The McLean Hospital Corporation, priority 2010, dated 2016)
Structures can show the parent of a compound that is named as a salt. Where two headings read alike, the source gives them in different places.

Key:
[1] = target: T1, D1^low (Rattus norvegicus, UniProt P18901); assay: Competitive radioreceptor binding, D1 low-affinity state, rat striatum [3H]SCH23390
T1 construct: membrane-containing homogenates of rat corpus striatum tissue; from tissue; host or cells: rat corpus striatum
T1 sequence (P18901 whole entry): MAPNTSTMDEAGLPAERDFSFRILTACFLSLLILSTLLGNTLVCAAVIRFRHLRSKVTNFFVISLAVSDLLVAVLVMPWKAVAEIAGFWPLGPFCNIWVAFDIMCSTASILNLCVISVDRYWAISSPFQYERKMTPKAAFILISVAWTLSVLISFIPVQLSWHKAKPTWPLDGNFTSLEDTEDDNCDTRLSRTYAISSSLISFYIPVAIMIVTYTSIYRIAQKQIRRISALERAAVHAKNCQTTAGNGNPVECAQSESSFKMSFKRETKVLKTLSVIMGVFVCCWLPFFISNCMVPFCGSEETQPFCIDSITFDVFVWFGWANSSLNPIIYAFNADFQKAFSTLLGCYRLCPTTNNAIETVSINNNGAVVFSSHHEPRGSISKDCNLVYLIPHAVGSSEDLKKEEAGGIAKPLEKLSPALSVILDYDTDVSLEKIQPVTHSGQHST

[2] = target: T2, D1^high (Rattus norvegicus, UniProt P18901); assay: Competitive radioreceptor binding, D1 high-affinity state, rat striatum [3H]SCH23390
T2 construct: membrane-containing homogenates of rat corpus striatum tissue; from tissue; host or cells: rat corpus striatum
T2 sequence (P18901 whole entry): as above

[3] = target: T3, D2^low (Rattus norvegicus, UniProt P61169); assay: Competitive radioreceptor binding, D2 low-affinity state, rat striatum [3H]domperidone
T3 construct: membrane-containing homogenates of rat corpus striatum tissue; from tissue; host or cells: rat corpus striatum
T3 sequence (P61169 whole entry): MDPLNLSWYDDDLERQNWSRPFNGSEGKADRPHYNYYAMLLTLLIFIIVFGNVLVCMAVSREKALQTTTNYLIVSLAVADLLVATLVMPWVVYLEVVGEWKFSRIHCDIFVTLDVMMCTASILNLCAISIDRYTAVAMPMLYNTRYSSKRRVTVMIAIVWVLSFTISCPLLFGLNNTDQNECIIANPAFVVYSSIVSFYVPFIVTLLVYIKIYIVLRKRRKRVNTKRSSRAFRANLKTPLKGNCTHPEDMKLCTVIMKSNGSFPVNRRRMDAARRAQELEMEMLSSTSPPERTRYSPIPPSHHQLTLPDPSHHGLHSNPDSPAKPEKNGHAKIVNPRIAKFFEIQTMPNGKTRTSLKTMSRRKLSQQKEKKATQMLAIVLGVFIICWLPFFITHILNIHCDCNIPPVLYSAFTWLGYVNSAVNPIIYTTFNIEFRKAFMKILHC

[4] = target: T4, D2^high (Rattus norvegicus, UniProt P61169); assay: Competitive radioreceptor binding, D2 high-affinity state, rat striatum [3H]domperidone; settings: for D2^high binding affinity (in words): comparison with analogue
T4 construct: membrane-containing homogenates of rat corpus striatum tissue; from tissue; host or cells: rat corpus striatum
T4 sequence (P61169 whole entry): as above

[5] = target: T5, human D3 clone (Homo sapiens, UniProt P35462); assay: Competitive binding, human D3 clone [3H]domperidone; settings: for Ki: human D3 clone, [3H]domperidone
T5 construct: expressed in transfected cells
T5 sequence (P35462 whole entry): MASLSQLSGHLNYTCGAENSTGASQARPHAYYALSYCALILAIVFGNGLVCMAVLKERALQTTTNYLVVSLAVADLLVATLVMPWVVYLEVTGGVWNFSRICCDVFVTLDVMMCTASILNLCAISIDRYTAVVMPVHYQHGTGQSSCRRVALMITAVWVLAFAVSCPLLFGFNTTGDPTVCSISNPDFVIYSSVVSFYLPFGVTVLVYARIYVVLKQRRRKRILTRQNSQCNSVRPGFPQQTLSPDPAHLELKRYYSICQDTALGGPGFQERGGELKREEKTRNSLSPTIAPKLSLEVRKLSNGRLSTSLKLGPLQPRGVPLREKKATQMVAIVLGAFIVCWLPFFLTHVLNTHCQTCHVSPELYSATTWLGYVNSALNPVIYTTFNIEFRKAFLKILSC

[6] = target: T6, D1 human clone (D1^low) (Homo sapiens, UniProt P21728); assay: Competitive binding, D1 human clone [3H]SCH23390
T6 construct: expressed in transfected cells
T6 sequence (P21728 whole entry): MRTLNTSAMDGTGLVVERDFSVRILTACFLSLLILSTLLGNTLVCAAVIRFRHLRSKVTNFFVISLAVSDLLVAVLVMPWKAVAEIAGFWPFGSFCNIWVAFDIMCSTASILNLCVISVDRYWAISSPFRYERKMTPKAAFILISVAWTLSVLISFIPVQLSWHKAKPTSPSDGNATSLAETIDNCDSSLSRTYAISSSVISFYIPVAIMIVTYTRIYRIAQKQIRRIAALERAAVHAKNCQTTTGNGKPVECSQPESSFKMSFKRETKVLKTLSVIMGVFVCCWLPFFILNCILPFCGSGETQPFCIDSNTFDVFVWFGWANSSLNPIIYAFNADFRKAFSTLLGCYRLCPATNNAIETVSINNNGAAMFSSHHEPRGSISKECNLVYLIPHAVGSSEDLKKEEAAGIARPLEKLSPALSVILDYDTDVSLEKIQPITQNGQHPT

[7] = target: T7, D3 rat clone (Rattus norvegicus, UniProt P19020); assay: Competitive binding, D3 rat clone [3H]domperidone
T7 construct: expressed in transfected cells
T7 sequence (P19020 whole entry): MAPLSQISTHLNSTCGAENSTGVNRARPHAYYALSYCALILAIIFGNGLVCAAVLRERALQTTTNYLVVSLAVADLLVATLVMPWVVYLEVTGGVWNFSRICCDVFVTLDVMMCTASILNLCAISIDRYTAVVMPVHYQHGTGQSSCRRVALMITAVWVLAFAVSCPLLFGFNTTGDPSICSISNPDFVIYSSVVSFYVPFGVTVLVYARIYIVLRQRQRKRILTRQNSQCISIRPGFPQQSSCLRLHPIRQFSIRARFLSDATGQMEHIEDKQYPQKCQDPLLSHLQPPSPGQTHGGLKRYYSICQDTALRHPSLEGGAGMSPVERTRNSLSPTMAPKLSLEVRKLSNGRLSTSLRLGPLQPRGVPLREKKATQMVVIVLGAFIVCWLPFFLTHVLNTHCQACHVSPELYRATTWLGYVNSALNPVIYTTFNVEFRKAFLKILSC

[8] = target: T8, D3^high (Homo sapiens, UniProt P35462); assay: D3 high-affinity state binding (footnote g); settings: footnote g of Table 1
T8 construct: expressed in transfected cells
T8 sequence (P35462 whole entry): as the sequence (P35462 whole entry) above

[9] = rat striatum, [3H]SCH23390, read-out: Ki D1^low (class)
[10] = rat striatum, [3H]domperidone, read-out: Ki D2^high

Row | Compound | melting point | Ki [1, 9] | Ki D1^high [2] | Ki [3] | Ki [4, 10] | further results
1 | CCN1CCc2cc(OCCI)cc3c2[C@H]1Cc1ccc(O)c(O)c1-3 (as salt: HCl) [8e, R(−)-2-iodoethoxy-N-ethylnorapomorphine] | 155 to 163 °C (dec.) |  |  |  |  | 
2 | CCCN1CCc2cc(OCCF)cc3c2[C@H]1Cc1ccc(O)c(O)c1-3 [8b, R(−)-2-Fluoroethyoxy-NPA] |  | > 2000 nM | No D1^high | 990 ± 35 nM | 3.7 nM | Ki [5]: 2.2 ± 0.33 µM
3 | CCN1CCc2cc(OCCCF)cc3c2[C@H]1Cc1ccc(O)c(O)c1-3 (as salt: HCl) [8c, R(−)-2-(3-Fluoropropanoxy) 10,11-dihydroxy-N-ethylnoraporphine] | 174 to 176 °C (dec.) |  |  |  |  | 
4 | CN1CCc2cc(OCCF)cc3c2[C@H]1Cc1cccc(O)c1-3 [11g, R(−)-2-(2-fluoroethoxy)-11-hydroxyaporphine] |  |  |  | 480 ± 130 nM | 1.2 ± 0.4 nM | Ki [5]: 0.89 ± 0.13 µM
5 | CCN1CCc2cc(OCCF)cc3c2[C@H]1Cc1cccc(O)c1-3 [11d, R(−)-2-(2-fluoroethoxy)-11-hydroxy-N-n-ethylnoraporphine] |  |  | No D1^high |  |  | Ki ([6]; D1 human clone, [3H]SCH23390, read-out: Ki D1^low): 810 ± 120 nM; Ki [7]: 550 ± 89 nM
6 | CCCN1CCc2cc(OCCF)cc3c2[C@H]1Cc1ccc(O)c(O)c1-3 (as salt: HCl) [8b, R(−)-2-Fluoroethyoxy-NPA] | 203 to 205 °C (dec.) |  |  |  |  | 
7 | Oc1cccc2c1-c1cccc3c1[C@@H](C2)N(CCCF)CC3 (as salt: HCl) [compound 6, R(−)-11-Hydroxy-N-(3-fluoropropyl)noraporphine] | 195 to 197 °C (dec.) |  |  |  |  | 
8 | CCCN1CCc2cc(OCCF)cc3c2[C@H]1Cc1cccc(O)c1-3 [11b, R(−)-2-(2-fluoroethoxy)-11-hydroxy-N-n-propylnoraporphine] |  |  | No D1^high | 56 ± 37 nM | 3.5 ± 2 nM | Ki [1]: > 2000 nM; D2^high binding affinity (in words) [4]: about the same; Ki [7]: 410 ± 62 nM
9 | CN1CCc2cc(OCCCF)cc3c2[C@H]1Cc1ccc(O)c(O)c1-3 (as salt: HCl) [8f, R(−)-2-(3-Fluoropropanoxy) 10,11-dihydroxyaporphine] | 170 to 175 °C (dec.) |  |  |  |  | 
10 | CCN1CCc2cc(OCCI)cc3c2[C@H]1Cc1ccc(O)c(O)c1-3 [8e, R(−)-2-iodoethoxy-N-ethylnorapomorphine] |  | > 2000 nM | No D1^high | 770 ± 230 nM |  | Ki [4]: 5 ± 2.3 nM; D2^high binding affinity (in words) [4]: slight drop; selectivity for D2^high over D1, D3, and D2^low ([4]; in words): high selectivity; Ki ([5]; bound given in μM): > 10 µM
11 | CN1CCc2cc(OCCF)cc3c2[C@H]1Cc1ccc(O)c(O)c1-3 [8g, R(−)-2-(2-Fluoroethoxy) 10,11-dihydroxyaporphine] |  | > 2000 nM | No D1^high | 620 ± 260 nM |  | D3 affinity (in words) [5]: no detectable affinity
12 | Oc1cccc2c1-c1cccc3c1[C@@H](C2)N(CCCF)CC3 [compound 6, R(−)-11-Hydroxy-N-(3-fluoropropyl)noraporphine] |  | > 2000 nM | No D1^high | 860 ± 170 nM | 6.9 ± 2.1 nM | Ki ([5]; bound given in μM): > 10 µM
13 | CCCN1CCc2cc(F)cc3c2[C@H]1Cc1ccc(O)c(O)c1-3 [2c, 2-F-NPA, reference compound] |  | > 2000 nM | No D1^high | 1800 ± 340 nM | 2.7 ± 1.3 nM | 
14 | CCCN1CCc2cc(OC)cc3c2[C@H]1Cc1ccc(O)c(O)c1-3 [2b, 2-MeO-NPA, reference compound] |  |  |  | 805 ± 140 nM | 5.1 ± 1.3 nM | Ki [1]: > 2000 nM; Ki [2]: 8.1 ± 0.7 nM
15 | CN1CCc2cc(OCCCF)cc3c2[C@H]1Cc1ccc(O)c(O)c1-3 [8f, R(−)-2-(3-Fluoropropanoxy) 10,11-dihydroxyaporphine] |  | > 2000 nM | No D1^high |  | 31 nM | D3^high affinity [8]: did not show any D3^high affinity
16 | CCCN1CCc2cccc3c2[C@H]1Cc1cccc(O)c1-3 [3b, reference compound] |  |  |  |  |  | Ki [5]: 1.7 ± 0.25 µM
17 | CCN1CCc2cc(OCCCF)cc3c2[C@H]1Cc1cccc(O)c1-3 (as salt: HCl) [11c] | 156 to 158 °C (dec.) |  |  |  |  | 
18 | CCCN1CCc2cc(OCCCF)cc3c2[C@H]1Cc1cccc(O)c1-3 [11a] |  | > 2000 nM | No D1^high |  |  | Ki [7]: 100 ± 14 nM
19 | CCN1CCc2cc(OCCF)cc3c2[C@H]1Cc1ccc(O)c(O)c1-3 [8d, R(−)-2-fluoroethoxy-N-ethylnorapomorphine] |  | > 2000 nM | No D1^high | 2400 ± 1500 nM | 2.5 nM | fold improvement in D2^high binding affinity ([4]; compared with 8c): more than 2 fold
20 | CCCN1CCc2cc(OCCCF)cc3c2[C@H]1Cc1ccc(O)c(O)c1-3 [8a, R(−)-2-(3-fluoropropanoxy)-NPA] |  |  | No D1^high | 3000 nM | 28 ± 15 nM | Ki [1]: > 2000 nM; Ki [4]: 27 nM; Ki [5]: 0.43 ± 0.064 µM
21 | CCN1CCc2cc(OCCCF)cc3c2[C@H]1Cc1cccc(O)c1-3 [11c] |  |  | No D1^high | 400 ± 290 nM | 3.2 ± 2.2 nM | Ki [6]: 1300 ± 200 nM; D2^high binding affinity (in words) [4]: overall improved binding affinity; Ki [7]: 240 ± 33 nM
22 | CN1CCc2cc(OCCF)cc3c2[C@H]1Cc1ccc(O)c(O)c1-3 (as salt: salt) [8g, R(−)-2-(2-Fluoroethoxy) 10,11-dihydroxyaporphine] | 236 to 238 °C (dec.) |  |  |  |  | 
23 | CCN1CCc2cc(OCCCF)cc3c2[C@H]1Cc1ccc(O)c(O)c1-3 [8c, R(−)-2-(3-Fluoropropanoxy) 10,11-dihydroxy-N-ethylnoraporphine] |  | > 2000 nM | No D1^high | 1600 ± 780 nM | 6.1 ± 3 nM | fold increase in D2^high affinity ([4]; in comparison to 8a): ~4 fold
24 | CCN1CCc2cc(OCCF)cc3c2[C@H]1Cc1ccc(O)c(O)c1-3 (as salt: HCl) [8d, R(−)-2-fluoroethoxy-N-ethylnorapomorphine] | 163 to 165 °C |  |  |  |  | 
